Assay results published in patent publication US11478474B2, “2-(3′-(hydroxymethyl)-1-methyl-5-((5-(2-methyl-4-(oxetan-3-yl)piperazin-1-yl)pyridin-2-yl)amino)-6-oxo-1,6-dihydro-[3,4′-bipyridin]-2′-yl)-7,7-dimethyl-7,8-dihydro-2H-cyclopenta[4,5]pyrrolo[1,2-a]pyrazin-1(6H)-one as a BTK inhibitor” (HUTCHISON MEDIPHARMA LIMITED, priority 2020, dated 2022).

Assays:
[1] = molecular target: phosphorylated BTK in Ramos cells (Homo sapiens (Human), UniProt Q06187); assay: Determination of phosphorylated BTK in Ramos cells (BTK phospho-Y223 HTRF); format: cell-based; details: anti-human IgM + hydrogen peroxide stimulation
How it was run: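 BTK Y223 phosphorylation measured by HTRF (665/615 nm) in lysates of Ramos cells. Cells were serum-starved 2 h, exposed to compound for 1 h (final 0.00018–3.0 μM, 0.3% DMSO), then stimulated 10 min with 10 μg/mL anti-IgM and 3.3 mM H2O2. IC50 derived from percent inhibition between unstimulated and stimulated controls.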

[2] = system: B cell activation in rat whole blood; assay: Determination of B cell activity in whole blood of rats (anti-rat IgD induced B cell activation, flow cytometry); format: cell-based; details: anti-rat immunoglobulin D 10 μg/mL, 18 hours, inhibition of B cell activation
Procedure: Example 4 Determination of B Cell Activity in Whole Blood of Rats
1. Reagents and Materials
Peripheral whole blood of female Wistar rats;
In the determination of the compound activity, the collected peripheral whole blood of rat was added to a 96 well plate at 80 μL/well and cultured in a 5% CO2, 37° C. cell incubator. After half an hour, the test compound was diluted with PBS in a 3-fold gradient to the corresponding concentrations, and then the diluted test compound with different concentrations was added to the culture system of rat whole blood at 10 μL/well (the final concentration of the test compound was 1.0, 0.33, 0.11, 0.037, 0.012, 0.0041, 0.0014, and 0.0005 μM, the final concentration of DMSO was 0.3%, double replicate wells), or the control solution (0.3% DMSO, 6 replicate wells) was added to the corresponding well at 10 μL/well, which were incubated in the cell incubator for one hour. Then 10 μL/well of anti-rat immunoglobulin D diluted in PBS (the final concentration was 10 μg/mL) was add to the treating wells of the test compound and control wells for anti-rat immunoglobulin D, or 10 μL/well of PBS was added to the negative control wells, which were mixed well to continue the culture in a 5% CO2, 37° C. cell incubator, and incubated for 18 hours.
On the second day, the 96-well plates were taken out and the flow cytometry antibody mixture (the final concentration of anti-rat B220PE antibody was 1 μg/mL and the final concentration of anti-rat CD86 FITC antibody was 1 μg/mL) diluted with PBS was added to each well of plate, which were incubated for 30 minutes in the dark, and then 50 μL of blood from each well was pipetted to the freshly prepared 500 μL of lysis buffer to lyse red blood cells. The plates were shaken for 20 minutes, centrifuged to remove the supernatant, then washed, fixed, and detected on a flow cytometer.
The B cell activation in the sample was determined by flow dyeing method.
The average value of the proportion of activated B cells in the wells with anti-rat immunoglobulin D but without the test compound was used as the control treating well for anti-rat immunoglobulin D, and the average value of the proportion of activated B cells in the wells without immunoglobulin D stimulation and without the test compound was used as the negative control treating well. According to the B cell activation ratio in each well, the inhibition ratio (%) of each concentration was calculated, and then the IC50 value was obtained by using the 205 model in XL-Fit 5.3 software (ID Business Solutions Limited).
The inhibition ratio is calculated as follows: inhibition ratio (%)=100%−{(treating well for the test compound−negative control treating well)/(control treating well for anti-rat immunoglobulin D−negative control treating well)}×100%, wherein,
Treating well for the test compound: represents the B cell activation ratio in rat whole blood treated with anti-rat immunoglobulin D and the test compound.
Control treating well for anti-rat immunoglobulin D: represents the B cell activation ratio in rat whole blood treated with anti-rat immunoglobulin D but without the test compound.
Negative control treating well: represents the B cell activation ratio in rat whole blood without the test compound and without immunoglobulin stimulation.
Through the above-mentioned test, the compound of the present invention has a potency to inhibit B cell activation in rat whole blood.

Chain of phosphorylated BTK in Ramos cells (Q06187 whole entry): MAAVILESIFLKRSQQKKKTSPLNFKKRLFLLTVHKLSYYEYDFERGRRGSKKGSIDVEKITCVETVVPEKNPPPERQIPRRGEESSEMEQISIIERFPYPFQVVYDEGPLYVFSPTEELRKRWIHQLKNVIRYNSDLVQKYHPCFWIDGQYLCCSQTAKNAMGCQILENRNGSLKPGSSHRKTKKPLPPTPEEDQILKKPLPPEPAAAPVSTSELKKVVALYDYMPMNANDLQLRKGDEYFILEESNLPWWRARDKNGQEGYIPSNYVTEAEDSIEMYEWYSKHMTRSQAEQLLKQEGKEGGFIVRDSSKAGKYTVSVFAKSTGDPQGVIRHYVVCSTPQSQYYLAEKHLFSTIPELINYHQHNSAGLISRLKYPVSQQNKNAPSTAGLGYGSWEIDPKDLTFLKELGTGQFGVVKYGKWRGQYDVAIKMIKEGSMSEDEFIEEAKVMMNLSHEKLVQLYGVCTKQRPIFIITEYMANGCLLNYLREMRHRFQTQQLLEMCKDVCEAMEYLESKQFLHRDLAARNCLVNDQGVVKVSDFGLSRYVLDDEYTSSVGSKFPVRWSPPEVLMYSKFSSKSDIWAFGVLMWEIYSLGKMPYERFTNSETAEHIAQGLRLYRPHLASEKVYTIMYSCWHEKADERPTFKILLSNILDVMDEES

Structure (SMILES)	IC50 [1]	IC50 [2]
CC1CCc2cc3c(=O)n(-c4nccc(-c5cc(Nc6ccc(N7CCN(C8COC8)C[C@@H]7C)cn6)c(=O)n(C)c5)c4CO)ccn3c2C1 (mixture of isomers) [Compound 78]	3 nM	41 nM
C[C@@H]1CN(c2ccc(Nc3cc(-c4ccnc(-n5ccn6c7c(cc6c5=O)CCC7)c4CO)cn(C)c3=O)nc2)[C@@H](C)CN1C1COC1 [Compound 2, 2-(5-((5-((2S,5R)-2,5-dimethyl-4-(oxetan-3-yl)piperazin-1-yl)pyridin-2-yl)amino)-3′-(hydroxymethyl)-1-methyl-6-oxo-1,6-dihydro-[3,4′-bispyridin]-2′-yl)-7,8-dihydro-2H-cyclopenta[4,5]pyrrolo[1,2-a]pyrazin-1(6H)-one]	10 nM	54 nM
COCCN1CCN(c2ccc(Nc3cc(-c4ccnc(-n5ccn6c7c(cc6c5=O)CC(C)(C)C7)c4CO)cn(C)c3=O)nc2)[C@@H](C)C1 [Compound 8]	2 nM	17 nM
Cn1cc(-c2ccnc(-n3ccn4c5c(cc4c3=O)CC(C)(C)C5)c2CO)cc(Nc2ccc(N3CCN(C4COC4)CC3)cn2)c1=O [Compound 9]	4 nM	–
C[C@H]1CN(C2COC2)CCN1c1ccc(Nc2cc(-c3ccnc(-n4ccn5c6c(cc5c4=O)CC(C)(C)C6)c3CO)cn(C)c2=O)nc1 [Compound 19]	4 nM	3 nM
C[C@H]1CN(C2COC2)CCN1c1ccc(Nc2cc(-c3ccnc(-n4ccn5c6c(cc5c4=O)CC(C)(C)C6)c3CO)cn3ncnc23)nc1 [Compound 21]	15 nM	24 nM
C[C@H]1CN(C2COC2)CCN1c1ccc(Nc2cc(-c3ccnc(-n4ccn5c6c(cc5c4=O)CC(C)(C)C6)c3CO)nn(C)c2=O)nc1 [Compound 22]	18 nM	34 nM
C[C@H]1CN(C2COC2)CCN1c1ccc(Nc2cc(-c3ccnc(-n4ccn5c6c(cc5c4=O)CC(C)(C)C6)c3CO)cn3c(F)cnc23)nc1 [Compound 23]	30 nM	277 nM
C[C@H]1CN(C)CCN1c1ccc(Nc2cc(-c3ccnc(-n4ccn5c6c(cc5c4=O)CC(C)(C)C6)c3CO)cn(C)c2=O)nc1 [Compound 26]	7 nM	19 nM
C[C@@H]1CN(c2ccc(Nc3cc(-c4ccnc(-n5ccn6c7c(cc6c5=O)CC(C)(C)C7)c4CO)cn(C)c3=O)nc2)[C@@H](C)CN1C1COC1 [Compound 27]	1 nM	5 nM
Cn1cc(Nc2cc(-c3ccnc(-n4ccn5c6c(cc5c4=O)CC(C)(C)C6)c3CO)cn(C)c2=O)nn1 [Compound 28]	2 nM	78 nM
Cn1cc(-c2ccnc(-n3ccn4c5c(cc4c3=O)CC(C)(C)C5)c2CO)cc(Nc2cn(CCF)nn2)c1=O [Compound 31]	6 nM	93 nM
C[C@H]1CN(C2COC2)CCN1c1cnc(Nc2cc(-c3ccnc(-n4ccn5c6c(cc5c4=O)CC(C)(C)C6)c3CO)cn(C)c2=O)cn1 [Compound 43]	2 nM	52 nM
C[C@H]1CN(C2COC2)CCN1c1cnc(Nc2cc(-c3ccnc(-n4ccn5c6c(cc5c4=O)CC(C)(C)C6)c3CO)cn(C)c2=O)nc1 [Compound 44]	18 nM	–
CN1CCN(C(=O)c2ccc(Nc3cc(-c4ccnc(-n5ccn6c7c(cc6c5=O)CC(C)(C)C7)c4CO)cn(C)c3=O)nc2)CC1 [Compound 48]	6 nM	26 nM
C[C@H]1CN(C2COC2)CCN1c1ccc(Nc2cc(-c3ccnc(-n4ccn5c6c(cc5c4=O)CC(C)(C)C6)c3CO)n[nH]c2=O)nc1 [Compound 49]	1 nM	10 nM
COCCN(C)c1ccc(Nc2cc(-c3ccnc(-n4ccn5c6c(cc5c4=O)CC(C)(C)C6)c3CO)cn(C)c2=O)nc1 [Compound 50]	2 nM	84 nM
C[C@H]1CN(C2COC2)CCN1c1ccc(Nc2cc(-c3ccnc(-n4ccn5c6c(cc5c4=O)CCC(F)(F)C6)c3CO)cn(C)c2=O)nc1 [Compound 56]	24 nM	–
C[C@H]1CN(C2COC2)CCN1c1ccc(Nc2cc(-c3ccnc(-n4ccn5c(c(F)c6ccccc65)c4=O)c3CO)cn(C)c2=O)nc1 [Compound 57]	3 nM	21 nM
C[C@H]1CN(C2COC2)CCN1c1ccc(Nc2cc(-c3ccnc(-n4ccn5c6c(cc5c4=O)CC(F)(F)CC6)c3CO)cn(C)c2=O)nc1 [Compound 58]	4 nM	6 nM
C[C@@H]1CN(c2ccc(Nc3cc(-c4ccnc(-n5ccn6c(c(F)c7ccccc76)c5=O)c4CO)cn(C)c3=O)nc2)[C@@H](C)CN1C1COC1 [Compound 59]	1 nM	19 nM
C[C@H]1CN(C2COC2)CCN1c1ccc(Nc2cc(-c3ccnc(-n4ccn5c(c(F)c6cc(F)ccc65)c4=O)c3CO)cn(C)c2=O)nc1 [Compound 60]	3 nM	34 nM
C[C@H]1CN(C2COC2)CCN1c1ccc(Nc2cc(-c3ccnc(-n4cnn5c6c(cc5c4=O)CC(C)(C)C6)c3CO)cn(C)c2=O)nc1 [Compound 63]	5 nM	44 nM
C[C@H]1CN(C2COC2)CCN1c1ccc(Nc2cc(-c3ccnc(-n4ccn5c6c(cc5c4=O)CCC6)c3CO)cn(C)c2=O)nc1 [Compound 64]	10 nM	52 nM
CCn1cc(Nc2cc(-c3ccnc(-n4ccn5c6c(cc5c4=O)CC(C)(C)C6)c3CO)cn3ncnc23)nn1 [Compound 71]	6 nM	92 nM
C[C@H]1CN(C2COC2)CCN1c1ccc(Nc2cc(-c3ccnc(-n4ccn5c(cc6ccccc65)c4=O)c3CO)cn(C)c2=O)nc1 [Compound 74]	11 nM	–
C[C@H]1CN(C2COC2)CCN1c1ccc(Nc2cc(-c3ccnc(-n4ccn5c(cc6cc(F)ccc65)c4=O)c3CO)cn(C)c2=O)nc1 [Compound 75]	7 nM	85 nM
C[C@H]1CN(C2COC2)CCN1c1ccc(Nc2cc(-c3ccnc(-n4ncn5c6c(cc5c4=O)CC(C)(C)C6)c3CO)cn(C)c2=O)nc1 [Compound 79]	2 nM	6 nM
